The results in this text go back to US7868026B2, “Therapeutic compounds” (Pfizer Inc., priority 2005, dated 2011).

What all share (assay type): biochemical
For experiment [1], the target named is T1, CYP3A4 (Homo sapiens, UniProt P08684). Nature of the experiment: Determination of IC50 against CYP3A4 by measurement of inhibition of midazolam metabolism (human liver microsomes, 1-hydroxymidazolam by LC-MS/MS). Also on record: 0.1 mg/mL human liver microsomes. Conditions: 2 μM midazolam, 0.1 mg/mL human liver microsomes. Put shortly:
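Human liver microsomes (0.1 mg/mL) incubated 8 min with 2 μM midazolam and 1 mM NADPH in 100 mM potassium phosphate, pH 7.4. 1-Hydroxymidazolam quantified by LC-MS/MS (MRM) as peak area ratio to internal standard against a metabolite standard curve.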
On the technique in general: Microsomes from liver hold many membrane-bound enzymes, among them those of drug oxidation.

Experiment [2] deals with T1, CYP3A4. The experiment in a line: Determination of compound Kiapp against recombinant CYP3A4 enzyme (BFC fluorescent substrate). Put shortly: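 Recombinant CYP3A4 (5.5 or 8 nM, with or without b5 depending on source) pre-incubated with inhibitor ≥30 min at room temperature in 100 mM sodium phosphate pH 7.0, 5 mM TCEP, 2% DMF. Reaction started with 200 uM NADPH and 5 uM BFC; initial fluorescence rates over 5 min fitted to Morrison tight-binding (non-partial) or Szedlacsek (partial) equations for Kiapp.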

The target of experiment [3] is T1, CYP3A4. Nature of the experiment: Determination of IC50 against CYP3A4 by measurement of inhibition of testosterone metabolism (human liver microsomes, 6-β-OH-testosterone by LC-MS/MS). Also on record: 0.1 mg/mL human liver microsomes. Conditions: read-out: IC50 (Testo.). Put shortly:
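Human liver microsomes (0.1 mg/mL) incubated with 25 μM testosterone and 1 mM NADPH in 100 mM potassium phosphate, pH 7.4, for eight minutes. 6-β-OH-testosterone measured by LC-MS/MS in MRM mode against an internal standard and quantified from a metabolite standard curve.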

Where [4] appears, read: Baculo. enzyme preparation, read-out: Kiapp (BFC, Baculo.).
Setting [5] is: Super. enzyme preparation, read-out: Kiapp (BFC, Super.).

Like-named read-outs stand apart in the source and are kept apart here.

T1 sequence (P08684 whole entry): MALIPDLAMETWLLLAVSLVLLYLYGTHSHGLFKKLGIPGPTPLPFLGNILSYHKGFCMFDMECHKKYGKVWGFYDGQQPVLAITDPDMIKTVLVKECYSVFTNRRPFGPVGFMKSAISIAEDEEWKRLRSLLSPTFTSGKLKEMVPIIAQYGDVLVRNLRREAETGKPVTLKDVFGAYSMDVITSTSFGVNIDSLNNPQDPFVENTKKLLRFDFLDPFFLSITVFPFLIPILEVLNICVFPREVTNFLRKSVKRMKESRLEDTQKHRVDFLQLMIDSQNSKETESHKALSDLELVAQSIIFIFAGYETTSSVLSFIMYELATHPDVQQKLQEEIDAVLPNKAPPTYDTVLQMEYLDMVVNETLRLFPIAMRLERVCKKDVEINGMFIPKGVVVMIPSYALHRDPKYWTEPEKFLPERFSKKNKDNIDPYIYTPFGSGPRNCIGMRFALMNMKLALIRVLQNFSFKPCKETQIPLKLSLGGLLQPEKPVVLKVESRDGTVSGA

One may read the IC50 as the concentration that gives 50% inhibition. Take `Cc1ccccc1CCNC(=O)c1ccccc1S(=O)(=O)Nc1cnccc1C` [Example 177, N-[2-(2-methylphenyl)ethyl]-2-{[(4-methylpyridin-3-yl)amino]sulfonyl}benzamide]: the values for the IC50 in experiment [1] and in experiment [3] were 11 nM and 12 nM, respectively. The results for the Ki in experiment [2] (setting [4]) and in experiment [2] (setting [5]) were 70.6 nM and 3.5 nM, respectively.

Regarding `Cc1ccncc1NS(=O)(=O)c1ccccc1C(=O)NC(C)(C)C` [Example 178, N-(tert-butyl)-2-{[(4-methylpyridin-3-yl)amino]sulfonyl}benzamide], the IC50 in experiment [1] came to 70 nM; in experiment [3], 97 nM. Further, the Ki was more than 1000 nM in experiment [2] (setting [4]) and 106 nM in experiment [2] (setting [5]).

As to `Cc1ccncc1NS(=O)(=O)c1ccccc1C(=O)NCCC(C)C` [Example 179, N-(3-methylbutyl)-2-{[(4-methylpyridin-3-yl)amino]sulfonyl}benzamide], the IC50 turned out to be 45 nM in experiment [1] and 58 nM in experiment [3]. The Ki in experiment [2] (setting [4]) worked out at 314 nM; in experiment [2] (setting [5]) it was 63.7 nM.

`COc1cncc(NS(=O)(=O)c2ccccc2C(=O)NCc2c(F)ccc(C)c2F)c1` [Example 180, N-(2,6-difluoro-3-methylbenzyl)-2-{[(5-methoxypyridin-3-yl)amino]sulfonyl}benzamide]: the figures for the IC50 in experiment [1] and in experiment [3] were 4 nM and 11 nM, respectively. In addition, the Ki in experiment [2] (setting [4]) is 92.8 nM; in experiment [2] (setting [5]), 7 nM.

For the compound `COc1cncc(NS(=O)(=O)c2ccccc2C(=O)NCc2cccc(F)c2F)c1` [Example 181, N-(2,3-difluorobenzyl)-2-{[(5-methoxypyridin-3-yl)amino]sulfonyl}benzamide], the IC50 in experiment [1] came to 7 nM; in experiment [3], 13 nM. The figures for the Ki in experiment [2] (setting [4]) and in experiment [2] (setting [5]) were 71.8 nM and 10.8 nM, respectively.

On to `COc1cncc(NS(=O)(=O)c2ccccc2C(=O)NC(C)c2ccc(Cl)cc2)c1` (stereo not shown) [Example 182, N-[1-(4-chlorophenyl)ethyl]-2-{[(5-methoxypyridin-3-yl)amino]sulfonyl}benzamide], for which the IC50 in experiment [1] was 6 nM; in experiment [3] it was 13 nM. Further, the Ki turned out to be 37.4 nM in experiment [2] (setting [4]) and 3.5 nM in experiment [2] (setting [5]).

Turning to `COc1cncc(NS(=O)(=O)c2ccccc2C(=O)NCc2ccc(F)cc2Cl)c1` [Example 183, N-(2-chloro-4-fluorobenzyl)-2-{[(5-methoxypyridin-3-yl)amino]sulfonyl}benzamide], the figures for the IC50 in experiment [1] and in experiment [3] were 5 nM and 11 nM, respectively. Moreover, the Ki was determined as 22.6 nM in experiment [2] (setting [4]) and 2 nM in experiment [2] (setting [5]).

Turning to `COc1cncc(NS(=O)(=O)c2ccccc2C(=O)NCc2cc(F)cc(F)c2)c1` [Example 184, N-(3,5-difluorobenzyl)-2-{[(5-methoxypyridin-3-yl)amino]sulfonyl}benzamide], the figures for the IC50 in experiment [1] and in experiment [3] were 13 nM and 11 nM, respectively. For the same compound, the Ki worked out at 54.5 nM in experiment [2] (setting [4]) and 5.9 nM in experiment [2] (setting [5]).

As for `COc1cncc(NS(=O)(=O)c2ccccc2C(=O)NCc2cccc(Cl)c2Cl)c1` [Example 185, N-(2,3-dichlorobenzyl)-2-{[(5-methoxypyridin-3-yl)amino]sulfonyl}benzamide], the IC50 in experiment [1] was determined as 11 nM; in experiment [3], 10 nM. Also, the Ki was 17.1 nM in experiment [2] (setting [4]) and 2.8 nM in experiment [2] (setting [5]).

Regarding `COc1cncc(NS(=O)(=O)c2ccccc2C(=O)NCc2ccccc2OC)c1` [Example 186, N-(2-methoxybenzyl)-2-{[(5-methoxypyridin-3-yl)amino]sulfonyl}benzamide], the IC50 came out at 6 nM in experiment [1] and 7 nM in experiment [3]. Besides, the Ki in experiment [2] (setting [4]) is 171 nM; in experiment [2] (setting [5]), 9.7 nM.

On to `COc1cncc(NS(=O)(=O)c2ccccc2C(=O)NC2CCCCC2)c1` [Example 187, N-cyclohexyl-2-{[(5-methoxypyridin-3-yl)amino]sulfonyl}benzamide], for which the IC50 in experiment [1] was found to be 22 nM; in experiment [3] it was 28 nM. For the same compound, the Ki in experiment [2] (setting [4]) came out at 257 nM; in experiment [2] (setting [5]), 35.9 nM.

As to `COc1cncc(NS(=O)(=O)c2ccccc2C(=O)NCC2(O)C3CC4CC(C3)CC2C4)c1` (stereo not shown) [Example 188, N-[(2-hydroxy-2-adamantyl)methyl]-2-{[(5-methoxypyridin-3-yl)amino]sulfonyl}benzamide], the IC50 in experiment [1] stood at 8 nM; in experiment [3] it was 12 nM. The results for the Ki in experiment [2] (setting [4]) and in experiment [2] (setting [5]) were 36.4 nM and 3.4 nM, respectively.

Turning to `CCCCC(CO)NC(=O)c1ccccc1S(=O)(=O)Nc1cncc(OC)c1` (stereo not shown) [Example 189, N-[1-(hydroxymethyl)pentyl]-2-{[(5-methoxypyridin-3-yl)amino]sulfonyl}benzamide], the IC50 in experiment [1] is 24 nM; in experiment [3] it was 48 nM. The Ki in experiment [2] (setting [4]) turned out to be 175 nM; in experiment [2] (setting [5]), 27.4 nM.

In the case of `COc1cncc(NS(=O)(=O)c2ccccc2C(=O)N[C@H](CO)CC2CCCCC2)c1` [Example 190, N-[(1S)-2-cyclohexyl-1-(hydroxymethyl)ethyl]-2-{[(5-methoxypyridin-3-yl)amino]sulfonyl}benzamide], the IC50 in experiment [1] stood at 7 nM; in experiment [3], 16 nM. In addition, the Ki worked out at 16.9 nM in experiment [2] (setting [4]) and 3.4 nM in experiment [2] (setting [5]).

Regarding `COc1cncc(NS(=O)(=O)c2ccccc2C(=O)NCCc2ccc(F)cc2F)c1` [Example 191, N-[2-(2,4-difluorophenyl)ethyl]-2-{[(5-methoxypyridin-3-yl)amino]sulfonyl}benzamide], the IC50 in experiment [1] turned out to be 10 nM; in experiment [3] it was 15 nM. For the same compound, the Ki in experiment [2] (setting [4]) is 59.7 nM; in experiment [2] (setting [5]) it was 5 nM.

On to `COc1cncc(NS(=O)(=O)c2ccccc2C(=O)NCc2cccc(Cl)c2)c1` [Example 192, N-(3-chlorobenzyl)-2-{[(5-methoxypyridin-3-yl)amino]sulfonyl}benzamide], for which the IC50 in experiment [1] and in experiment [3] was 7 nM throughout. The Ki in experiment [2] (setting [4]) was determined as 23.7 nM; in experiment [2] (setting [5]) it was 2.7 nM.

With `CCC(CC)NC(=O)c1ccccc1S(=O)(=O)Nc1cncc(OC)c1` [Example 193, N-(1-ethylpropyl)-2-{[(5-methoxypyridin-3-yl)amino]sulfonyl}benzamide], the figures for the IC50 in experiment [1] and in experiment [3] were 13 nM and 27 nM, respectively. The results for the Ki in experiment [2] (setting [4]) and in experiment [2] (setting [5]) were 41.2 nM and 21.7 nM, respectively.

For `COC[C@@H]1[C@@H]2C[C@@H]3[C@H]1CN(C(=O)c1ccccc1S(=O)(=O)Nc1cncc(OC)c1)[C@@H]3C2` [Example 194, 2-{[(3R,3aR,5R,6aR,7R)-7-(methoxymethyl)hexahydro-3,5-methanocyclopenta[b]pyrrol-1(2H)-yl]carbonyl}-N-(5-methoxypyridin-3-yl)benzenesulfonamide], the IC50 in experiment [1] is 73 nM; in experiment [3], 99 nM. The Ki in experiment [2] (setting [4]) is 376 nM; in experiment [2] (setting [5]), 68.5 nM.

With `CCCN(CC)C(=O)c1ccccc1S(=O)(=O)Nc1cncc(OC)c1` [Example 195, N-ethyl-2-{[(5-methoxypyridin-3-yl)amino]sulfonyl}-N-propylbenzamide], the IC50 in experiment [1] worked out at 15 nM; in experiment [3], 32 nM. Moreover, the values for the Ki in experiment [2] (setting [4]) and in experiment [2] (setting [5]) were 70.8 nM and 35.6 nM, respectively.

`COc1cncc(NS(=O)(=O)c2ccccc2C(=O)N2CCOC(c3c(F)cccc3F)C2)c1` (stereo not shown) [Example 196, 2-{[2-(2,6-difluorophenyl)morpholin-4-yl]carbonyl}-N-(5-methoxypyridin-3-yl)benzenesulfonamide]: the IC50 in experiment [1] was 51 nM; in experiment [3], 58 nM. The Ki is 379 nM in experiment [2] (setting [4]) and 74.5 nM in experiment [2] (setting [5]).

Take `COc1cncc(NS(=O)(=O)c2ccccc2C(=O)NCCc2cc(F)ccc2F)c1` [Example 197, N-[2-(2,5-difluorophenyl)ethyl]-2-{[(5-methoxypyridin-3-yl)amino]sulfonyl}benzamide]: the IC50 in experiment [1] was determined as 4 nM; in experiment [3] it was 18 nM. The figures for the Ki in experiment [2] (setting [4]) and in experiment [2] (setting [5]) were 69.5 nM and 20.1 nM, respectively.

Consider `COc1cncc(NS(=O)(=O)c2ccccc2C(=O)N(C)Cc2ccccc2F)c1` [Example 198, N-(2-fluorobenzyl)-2-{[(5-methoxypyridin-3-yl)amino]sulfonyl}-N-methylbenzamide], for which the IC50 in experiment [1] is less than 3 nM; in experiment [3], 10 nM. Further, the Ki in experiment [2] (setting [4]) was determined as 41.7 nM; in experiment [2] (setting [5]), 16.6 nM.

Take `COc1cncc(NS(=O)(=O)c2ccccc2C(=O)NC(CO)Cc2ccc(Cl)cc2)c1` (stereo not shown) [Example 199, N-[1-(4-chlorobenzyl)-2-hydroxyethyl]-2-{[(5-methoxypyridin-3-yl)amino]sulfonyl}benzamide]: the IC50 was 6 nM in experiment [1] and 11 nM in experiment [3]. Further, the results for the Ki in experiment [2] (setting [4]) and in experiment [2] (setting [5]) were 12.7 nM and 10.5 nM, respectively.

With `COc1cncc(NS(=O)(=O)c2ccccc2C(=O)NCC2CCCCC2)c1` [Example 200, N-(cyclohexylmethyl)-2-{[(5-methoxypyridin-3-yl)amino]sulfonyl}benzamide], the values for the IC50 in experiment [1] and in experiment [3] were 12 nM and 21 nM, respectively. Also, the Ki in experiment [2] (setting [4]) worked out at 36.1 nM; in experiment [2] (setting [5]), 9.9 nM.

Turning to `COc1cncc(NS(=O)(=O)c2ccccc2C(=O)NC2C3CC4CC(C3)CC2C4)c1` (stereo not shown) [Example 201, N-2-adamantyl-2-{[(5-methoxypyridin-3-yl)amino]sulfonyl}benzamide], the IC50 in experiment [1] is 9 nM; in experiment [3], 16 nM. The results for the Ki in experiment [2] (setting [4]) and in experiment [2] (setting [5]) were 29.3 nM and 8 nM, respectively.
